Test results from paper PMC5459446, “A phase I study of single-agent perifosine for recurrent or refractory pediatric CNS and solid tumors” (PLoS ONE, 2017).
Where a name gives a salt, the structure may show the parent alone.

What was measured:
[1] = system: recurrent or refractory pediatric CNS and solid tumors; assay: Tumor response assessment (RECIST; INRC for neuroblastoma); assay type: in vivo, human; parameters: key to Best Response: no response per INRC; PD: progressive disease per RECIST or INRC; SD: stable disease per RECIST; settings: for Subjects with stable disease as best response: stable disease for 2 months
Experimental: Tumor assessments were performed approximately every 8 weeks. For subjects with tumors other than neuroblastoma, responses were assessed by the study radiologist and principal investigator (SH, ID) via the Response Evaluation Criteria in Solid Tumors (RECIST). For subjects with neuroblastoma, responses were assessed by a single investigator (BK) using the International Neuroblastoma Response Criteria (INRC).

[2] = system: Rhabdomyosarcoma cell lines; parameters: method as in PMID 19887560, PMID 26269112; settings: cited from earlier work
[3] = system: medulloblastoma cell lines; parameters: method as in PMID 19887560, PMID 26269112; settings: cited from earlier work
mTOR pathway / autophagy = system: mTOR pathway / autophagy; parameters: method as in PMID 19920197; settings: doses as low as; cited from earlier work
telomerase = system: telomerase; parameters: method as in PMID 26307677; settings: cited from earlier work
[4] = cited from earlier work

SMILES: CCCCCCCCCCCCCCCCCCOP(=O)([O-])OC1CC[N+](C)(C)CC1 [perifosine, 1,1-Dimethyl-4-[[(octadecyloxy)hydroxyphosphinyl]oxy]-piperidinium inner salt]
- Objective responses ([1]; 23 patients, all dose levels): No objective responses
- Best Response ([1]; Patient 1, dose level 1, medulloblastoma): PD
- Best Response ([1]; Patient 2, dose level 1, medulloblastoma): PD
- Best Response ([1]; Patient 3, dose level 1, neuroblastoma): NR
- Duration of Best Response ([1]; Patient 3, dose level 1, neuroblastoma, NR): 11 months
- Best Response ([1]; Patient 4, dose level 2, glioblastoma): PD
- Best Response ([1]; Patient 5, dose level 2, neuroblastoma): NR
- Duration of Best Response ([1]; Patient 5, dose level 2, neuroblastoma, NR): 63 months
- Best Response ([1]; Patient 6, dose level 2, anaplastic astrocytoma): SD
- Duration of Best Response ([1]; Patient 6, dose level 2, anaplastic astrocytoma, SD): 2 months
- Best Response ([1]; Patient 7, dose level 3, glioblastoma): SD
- Duration of Best Response ([1]; Patient 7, dose level 3, glioblastoma, SD): 2 months
- Best Response ([1]; Patient 8, dose level 3, anaplastic astrocytoma): SD
- Duration of Best Response ([1]; Patient 8, dose level 3, anaplastic astrocytoma, SD): 2 months
- Best Response ([1]; Patient 9, dose level 3, anaplastic astrocytoma): SD
- Duration of Best Response ([1]; Patient 9, dose level 3, anaplastic astrocytoma, SD): 2 months
- Best Response ([1]; Patient 10, dose level 3, ependymoma): PD
- Best Response ([1]; Patient 11, dose level 3, neuroblastoma): NR
- Duration of Best Response ([1]; Patient 11, dose level 3, neuroblastoma, NR): 2 months
- Best Response ([1]; Patient 12, dose level 4, neuroblastoma): PD
- Best Response ([1]; Patient 13, dose level 4, Ewing sarcoma/PNET): PD
- Best Response ([1]; Patient 14, dose level 4, neuroblastoma): NR
- Duration of Best Response ([1]; Patient 14, dose level 4, neuroblastoma, NR): 4 months
- Best Response ([1]; Patient 15, dose level 4, neuroblastoma): NR
- Duration of Best Response ([1]; Patient 15, dose level 4, neuroblastoma, NR): 42 months
- Best Response ([1]; Patient 16, dose level 4, neuroblastoma): PD
- Best Response ([1]; Patient 17, dose level 4, DIPG): PD
- Best Response ([1]; Patient 18, dose level 5, Wilms tumor): PD
- Best Response ([1]; Patient 19, dose level 5, DIPG): PD
- Best Response ([1]; Patient 20, dose level 5, DIPG): SD
- Duration of Best Response ([1]; Patient 20, dose level 5, DIPG, SD): 2 months
- Best Response ([1]; Patient 21, dose level 5, ependymoma): PD
- Best Response ([1]; Patient 22, dose level 5, ependymoma): PD
- Best Response ([1]; Patient 23, dose level 5, neuroblastoma): PD
- Subjects with disease stability (no response per INRC) ([1]; neuroblastoma, for 2, 4, 11, 42 and 63 months): Five of 8
- Subjects with stable disease as best response ([1]; recurrent high-grade astrocytoma): 4 of 5
- Duration of prolonged stable disease ([1]; three subjects with neuroblastoma): ≥ 11 months
- Subjects with stable disease as best response ([1]; three subjects with recurrent DIPG): 1
- IC50 [2]: ~10 µM
- IC50 [3]: 25 µM
- Lowest dose degrading mTOR pathway components and inducing autophagy (mTOR pathway / autophagy): 5 µM
- Doses inhibiting telomerase activity (telomerase): low micromolar
- Dose at which dose exposure plateau was reached ([4]; 2 adult studies): higher than 100 mg/m^2/day
- Plasma half-life [4]: approximately 4 days
